Converted amounts (≈) assume the structure as drawn.
Key:
U251 (glioma, CNS) = assay: In vitro cytotoxicity, SRB assay; type: cell-based, human
Description: Based on the results, growth rate graphics from the sample concentration for each of the tested strain were generated. Three effective concentrations called GI50 (growth inhibition, the concentration required to disrupt 50% cell growth), TGI (total growth inhibition, the concentration required for 0% of cell growth) and LC50 (lethal concentration, concentration required for 50% cell death) could be calculated by nonlinear regression, sigmoidal, using 8.0 Origin software.

[1] = system: panel of human tumor cells; assay: In vitro cytotoxicity, SRB assay, mean over tumor lines; type: cell-based; settings: arithmetic mean of the TGI values for tumor lines
Protocol: (§1) The in vitro cytotoxicity of essential oils (present invention) were evaluated against two normal cell lines (VERO—African green monkey kidney epithelial cells and HaCat—immortal human keratinocytes) and against a panel of human tumor cells.
(§2) Based on the results, growth rate graphics from the sample concentration for each of the tested strain were generated.
The test results obtained are shown in FIG. 1 (present invention) and table 2. In this model, one way to infer the growth rate is by spectrophotometric reading of the absorbance of cellular proteins stained with sulforhodamine B (SRB), an anionic dye staining bright pink. This dye can bind to protein terminations of basic amino acids in living cells fixed with Trichloroacetic acid (TCA), thus being an independent assay of cell metabolism and allowing a sensitive measurement of protein linearly with the number of cells in culture. […]
Chemotherapy doxorubicin was used as positive control. […] This is because with successive passages necessary for the maintenance of cell culture, there is the possibility of changing the lineage in culture, and this mutation could be detected by the change in response against doxorubicin. […]

[2] = system: HaCat (keratinocyte, immortalized normal cell); assay: In vitro cytotoxicity, SRB assay; type: cell-based, human; settings: normal cell line
Protocol: as §1, §2
(§3) The test results obtained are shown in FIG. 1 (present invention) and table 2. In this model, one way to infer the growth rate is by spectrophotometric reading of the absorbance of cellular proteins stained with sulforhodamine B (SRB), an anionic dye staining bright pink. This dye can bind to protein terminations of basic amino acids in living cells fixed with Trichloroacetic acid (TCA), thus being an independent assay of cell metabolism and allowing a sensitive measurement of protein linearly with the number of cells in culture.
(§4) This test allows us to evaluate the antitumor activity through exposure of human tumor cells in exponential growth phase at different concentrations of the sample and whether that exposure led to an interruption in the growth rate without cell death ([…]) or caused the death cell (cytocidal activity). To measure the activity, an effective concentration called TGI (total growth inhibition, concentration required for 0% cell growth occurs) (Shoemaker, 2006) was calculated.
(§5) Chemotherapy doxorubicin was used as positive control. In addition to a standard of comparison, the main purpose of using this control was to verify that all employed cell lines kept the profile of response to chemotherapy. This is because with successive passages necessary for the maintenance of cell culture, there is the possibility of changing the lineage in culture, and this mutation could be detected by the change in response against doxorubicin. Furthermore, in order to minimize the occurrence of mutations, the cell lines are perpetuated only by up to 20 passages, after which they are replaced by new cells of the same strain that were maintained frozen.

[3] = system: NCI-ADR/RES (ovary, with multidrug resistant phenotype); assay: In vitro cytotoxicity, SRB assay; type: cell-based, human
Protocol: as §1, §2, §3, §4, §5

786-0 (kidney) = assay: In vitro cytotoxicity, SRB assay; type: cell-based, human
Protocol: as §1, §2, §3, §4, §5

MCF-7 (breast) = assay: In vitro cytotoxicity, SRB assay; type: cell-based, human
Protocol: as §1, §2, §3, §4, §5

[4] = system: NCI-H460 (lung, non-small cells); assay: In vitro cytotoxicity, SRB assay; type: cell-based, human
Protocol: as §1, §2, §3, §4, §5

## COc1cccc2c1C(=O)c1c(O)c3c(c(O)c1C2=O)C[C@@](O)(C(=O)CO)C[C@@H]3O[C@H]1C[C@H](N)[C@H](O)[C@H](C)O1 [Doxorubicin]
U251 (glioma, CNS)
  TGI (Total Growth Inhibition): 1.24 µg/mL (≈ 2.28 µM)
[1]
  TGI Average: >25 µg/mL
[2]
  TGI (Total Growth Inhibition): >25 µg/mL
[3]
  TGI (Total Growth Inhibition): >25 µg/mL
786-0 (kidney)
  TGI (Total Growth Inhibition): >25 µg/mL
MCF-7 (breast)
  TGI (Total Growth Inhibition): >25 µg/mL
[4]
  TGI (Total Growth Inhibition): >25 µg/mL

— patent US9333178B2, “Essential oil microparticles and uses thereof for preventing enteric diseases” (Universidade Estadual de Campinas—UNICAMP, priority 2012, dated 2016)
